The values below come from patent publication US20100298394A1, “ANTIFUNGAL AGENTS AS NEUROPROTECTANTS” (THE JOHNS HOPKINS UNIVERSITY, priority 2007, published 2010).

Data set [1] concerns rat mixed hippocampal cultures. As to the kind of experiment: Titration of 3-NP toxicity, MTT endpoint. The data set is classed as cell-based. The note with it: 3 mM 3-NP, 18 hours, compared to 0.1% DMSO vehicle control. The protocol: FIG. 1 presents an illustrative titration of 3-NP toxicity in rat mixed hippocampal cultures. Rat mixed hippocampal cultures, day 11-14 in vitro, were subjected to 18 hour exposure to 3-NP, followed by MTT treatment to quantitate cell viability.
(§1) Rat mixed hippocamal neuronal cultures are generated from freshly dissected rat hippocampi (embryonic day 18) in neurobasal media containing 5% fetal bovine serum and 2% B27 supplement. The cells are plated into 96 well plates at a density of 4×10^5 cells/mL and routinely used on days 11-14 following culturing. Cell viability is assessed with MTT [3-(4,5-dimethylthiazol-2-yl)-2,5-diphenyltetrazolium bromide] assay. The MTT assay is based on the ability of a mitochondrial dehydrogenase enzyme from viable cells to cleave the tetrazolium rings of the pale yellow MTT and form dark blue formazan crystals. See Mosmann (1983), J Immunol Methods, 65(1-2):55-63. These crystals are largely impermeable to cell membranes, and thus accumulate within healthy cells. The resultant formazan precipitates are solubilized with DMSO and read on a multiwell scanning spectrophotometer (ELISA reader). The number of surviving cells is directly proportional to the level of the formazan product created.
(§2) Mixed hippocampal cultures are incubated with 3-NP (0.5-10 mM) for 18 hours in a 0.1% DMSO vehicle and then assessed for viability using an MTT assay.

Data set [2] concerns Mixed hippocampal cultures. As to the kind of experiment: ADP ribose toxicity assay, MTT endpoint. The data set is classed as cell-based, rat. The note with it: increasing concentrations, 24 h prior to 1 mM ADP ribose for 18 h. On the procedure:
Mixed hippocampal cultures were treated with increasing concentrations of fluconazole (panel A) or voriconazole (panel B), for 24 h prior to exposure to 1 mM ADP ribose for 18 h. Cell survival was measured following ADP ribose by MTT assay. Statistical significance was determined by ANOVA with Newman-Keuls pairwise post hoc comparisons. Statistical significance * indicates p<0.05, ** indicates p<0.01; *** indicates p<0.001.
as §1, with “The number of surviving cells is directly proportional to the level of the formazan product created.” left out

The subject of data set [3] is Human cortical neuronal cultures. As to the kind of experiment: 3-NP toxicity assay in human neurons, MTT endpoint. The conditions noted are these: increasing concentrations, 1 h prior to 3 mM 3-NP for 18 h. The data set is classed as cell-based. The protocol: (§3) Human cortical neuronal cultures were treated with increasing concentrations of fluconazole for 1 h prior to exposure to 3 mM 3-NP (panel A) or 100 μM 6-OHDA (panel B) for 18 h. Cell survival was measured by MTT assay. Statistical significance was determined by ANOVA with Newman-Keuls pairwise post hoc comparisons. Statistical significance * indicates p<0.05, ** indicates p<0.01; *** indicates p<0.001.
(§4) FIG. 9 illustrates the protection of human neuronal cultures from 3-NP and 6-OHDA with fluconazole (FIGS. 9A-9B, respectively). The neural and glial cells were preincubated with the neuroprotective compound for 1 hour followed by exposure to 3 mM 3-NP or 100 μM 6-OHDA for 18 hours.

Data set [4] deals with Mixed hippocampal cultures. The experiment in a line: 6-OHDA neurotoxicity assay, MTT endpoint. The data set is classed as cell-based, rat. The conditions noted are these: increasing concentrations, 1 h prior to 100 μM 6-OHDA for 18 h. On the procedure:
Mixed hippocampal cultures were treated with increasing concentrations of fluconazole (panel A) or voriconazole (panel B), for 1 h prior to exposure to 100 μM 6-hydroxydopamine (6-OHDA) for 18 h. Cell survival was measured following 6-OHDA by MTT assay. Statistical significance was determined by ANOVA with Newman-Keuls pairwise post hoc comparisons. Statistical significance * indicates p<0.05, ** indicates p<0.01; *** indicates p<0.00
as §1, with “The number of surviving cells is directly proportional to the level of the formazan product created.” left out

The subject of data set [5] is rat mixed hippocampal cultures. As to the kind of experiment: 3-NP neurotoxicity (neuroprotection) assay, MTT endpoint. The data set is classed as cell-based. The conditions noted are these: for protection from oxidative damage elicited by 3-NP (FIG. 4): increasing concentrations, 1 h prior to 3 mM 3-NP for 18 h. On the procedure: For example, a cell viability assay can be utilized to detect and/or measure the ability of a compound disclosed herein to protect neuronal and/or glial cells. In some embodiments, mixed hippocampal cell cultures are prepared as described in, e.g., Haughey et al. (1999), J Neurochem, 73(4):1363-1374, and Haughey et al (2004), J Neurosci, 24(1):257-268. Subsequently, the cultures are pretreated for one hour in the presence of a candidate neuroprotective agent and then incubated with a cytotoxic agent for about 18 hours. Examples of cytotoxic agents include, but are not limited to, oxidative stressors (e.g., 3-nitropropionic acid (3-NP) or H2O2),.excitatory amino acids (e.g., kainate), or neurotoxic proteins (e.g., Hiv Tat, or Aβ peptides). […] The level of protection (“percent protection”) provided by the test compound at a given test concentration in vitro can be expressed as: […]
(§5) We evaluate the protective efficacy of a number of antifungal agents against many different neurotoxins, ranging from the chemotoxic 6-OHDA, NMDA, 3-nitropropionic acid (3-NP), and viral proteins such as Tat and gp120. Thus, we provide an in vitro neuroprotection assay using rat mixed hippocampal cultures, in which we evaluate the protective efficacy of neuroprotective compounds described herein. The oxidative stressor 3-NP is used to elicit toxicity in the rat hippocampal cultures to mimic the oxidative damage, reactive oxygen species production and ensuing neurodegeneration resulting from HIV infection. Another measure of neurotoxicity which results from HIV infection is evaluated by exposure of the hippocampal cultures to HIV-1 Tat (Li et al (2005), Neurotox Res, 8(1-2):119-134).
as §1, §2
Neuroprotection vs 3NP is measured as a percentage of neural and/or glial cell that are protected from 3NP induced cell death after incubation with the neuroprotective agent (10 μM) for 60 minutes when compared to a 0.1% DMSO vehicle control.
The neural and glial cells were preincubated with the neuroprotective compound for 1 hour followed by exposure to3 mM of the toxin for 18 hours.

Data set [6] concerns Human cortical neuronal cultures. The experiment in a line: 6-OHDA toxicity assay in human neurons, MTT endpoint. The data set is classed as cell-based. The conditions noted are these: increasing concentrations, 1 h prior to 100 μM 6-OHDA for 18 h. On the procedure: as §3, §4
In data set [7] the test system is Mixed hippocampal cultures. The experiment in a line: NMDA excitotoxicity assay, MTT endpoint. The data set is classed as cell-based, rat. The conditions noted are these: increasing concentrations, 1 h prior to 500 μM NMDA for 18 h. On the procedure:
Mixed hippocampal cultures were treated with increasing concentrations of fluconazole (panel A) or voriconazole (panel B), for 1 h prior to exposure to 500 μM N-methyl D-aspartate (NMDA) for 18 h. Cell survival was measured following NMDA by MTT assay. Statistical significance was determined by ANOVA with Newman-Keuls pairwise post hoc comparisons. Statistical significance * indicates p<0.05, ** indicates p<0.01; *** indicates p<0.001.
as §1, with “The number of surviving cells is directly proportional to the level of the formazan product created.” left out

Data set [8] relates to rat mixed hippocampal cultures. As to the kind of experiment: HIV-1 Tat neurotoxicity assay, MTT endpoint. The note with it: increasing concentrations, 1 hour preincubation, 500 nM Tat1-72 for 18 hours. The data set is classed as cell-based.
Description: as §5, §1
The assay system is validated using two neuroprotective agents, GPI 1046 and Resveratrol. […] Cultures are preincubated with GPI 1046 or Resveratrol for one hour prior to an 18 hour exposure to 3 mM 3-NP. […] The same neuroprotective compounds are evaluated for efficacy against HIV-1 Tat protein toxicity using the same 1 hour preincubation protocol.
The neural and glial cells were preincubated with the neuroprotective compound for 1 hour followed by exposure to 500 nM of Tat1-72 for 18 hours.

Setting [9] is: 10 μM agent, 60 minutes incubation, 3 mM 3-NP, compared to 0.1% DMSO vehicle control.

In the case of `O=C(O)CC[N+](=O)[O-]` [3-NP, 3-nitropropionic acid], the cytotoxicity in data set [1] is 25-35%.
As to `OC(Cn1cncn1)(Cn1cncn1)c1ccc(F)cc1F` [FLUCONAZOLE, Fluconazole], in data set [2], the “protection from toxicity elicited by ADP ribose (FIG. 8)” value is recorded as “protect hippocampal neurons from toxicity elicited by ADP ribose”. The “protection of human cortical neurons from 3-NP toxicity (FIG. 9A)” value in data set [3] was “protects human cortical neurons”. Moreover, in data set [4], the “protection from 6-OHDA neurotoxicity (FIG. 7)” value is reported as “protect hippocampal neurons from 6-OHDA neurotoxicity”. In addition, in data set [5] (setting [9]), the “% Protection vs. 3-NP” value worked out at 13.3% and the “Protection vs 3NP” value is 13.35%. For the same molecule, the “protection from oxidative damage elicited by 3-NP (FIG. 4)” value in data set [5] is listed as “protect hippocampal neurons from oxidative damage elicited by 3-NP”. Besides, in data set [6], the “protection of human cortical neurons from 6-OHDA toxicity (FIG. 9B)” value is listed as “protects human cortical neurons”. The “protection from excitotoxic lesions elicited by NMDA (FIG. 6)” value in data set [7] is given as “protect hippocampal neurons from excitotoxic lesions elicited by NMDA”. Further, the “protection of hippocampal cultures from HIV-Tat toxicity (FIG. 5)” value in data set [8] is “concentration dependent protection”.
With `C[C@@H](c1ncncc1F)[C@](O)(Cn1cncn1)c1ccc(F)cc1F` [voriconazole], the “protection from toxicity elicited by ADP ribose (FIG. 8)” value in data set [2] is reported as “protect hippocampal neurons from toxicity elicited by ADP ribose”. In data set [4], the “protection from 6-OHDA neurotoxicity (FIG. 7)” value is on record as “protect hippocampal neurons from 6-OHDA neurotoxicity”. Also, in data set [5], the “protection from oxidative damage elicited by 3-NP (FIG. 4)” value is reported as “protect hippocampal neurons from oxidative damage elicited by 3-NP”. The “protection from excitotoxic lesions elicited by NMDA (FIG. 6)” value in data set [7] is “protect hippocampal neurons from excitotoxic lesions elicited by NMDA”. Further, the “protection of hippocampal cultures from HIV-Tat toxicity (FIG. 5)” value in data set [8] is recorded as “concentration dependent protection”.
